Measurements: US20080318943A1, “Compounds and Uses Thereof - 848” (ASTRAZENECA AB, priority 2007, published 2008)

Assays:
[1] = target: T1, GABAA2 receptors (α2, β3, γ2 receptor subunits transfected into Sf9 cells) (Homo sapiens, UniProt P18507+P47869); assay: GABAA2 Binding Method ([3H]-Flunitrazepam displacement); details: [3H]-Flunitrazepam ~2 nM, α2β3γ2 Sf9 membranes, 1 hr at 4° C.
T1 construct: host or cells: Sf9 cells (membranes)
Method in brief: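 Displacement of [3H]-flunitrazepam (~2 nM in assay) from recombinant human α2β3γ2 receptors in Sf9 membranes; 1 h incubation at 4 °C, harvest by filtration. Values reported as percent of control, IC50 and Ki.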

GABAA receptor α1β2γ2 = target: T2, GABAA receptor α1β2γ2 (Homo sapiens, UniProt P14867+P18507); assay: Two-electrode voltage-clamp potentiation of GABA EC10 current in Xenopus oocytes, GABAA1; type: cell-based; details: percentage potentiation of GABA EC10 current divided by that of diazepam
T2 construct: expressed in transfected cells; host or cells: Xenopus laevis oocytes injected with cRNA
Method in brief: (§1)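 Human GABAA receptors expressed in Xenopus oocytes by cRNA injection (α:β:γ molar ratio ~1:1:10 for α1β2γ2, 1:1:1 for α2β3γ2), recorded 2-10 days later by two-electrode voltage clamp at −60 mV in ND-96, pH 7.5. Modulator preapplied 30 s before GABA at per-oocyte EC10. Peak-current percent potentiation over GABA alone, normalised to diazepam.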

GABAA receptor α2β3γ2 = target: T3, GABAA receptor α2β3γ2 (Homo sapiens, UniProt P18507+P47869); assay: Two-electrode voltage-clamp potentiation of GABA EC10 current in Xenopus oocytes, GABAA2; type: cell-based; details: percentage potentiation of GABA EC10 current divided by that of diazepam
T3 construct: expressed in transfected cells; host or cells: Xenopus laevis oocytes injected with cRNA
Method in brief: as §1

T2 sequence (P14867 28-456): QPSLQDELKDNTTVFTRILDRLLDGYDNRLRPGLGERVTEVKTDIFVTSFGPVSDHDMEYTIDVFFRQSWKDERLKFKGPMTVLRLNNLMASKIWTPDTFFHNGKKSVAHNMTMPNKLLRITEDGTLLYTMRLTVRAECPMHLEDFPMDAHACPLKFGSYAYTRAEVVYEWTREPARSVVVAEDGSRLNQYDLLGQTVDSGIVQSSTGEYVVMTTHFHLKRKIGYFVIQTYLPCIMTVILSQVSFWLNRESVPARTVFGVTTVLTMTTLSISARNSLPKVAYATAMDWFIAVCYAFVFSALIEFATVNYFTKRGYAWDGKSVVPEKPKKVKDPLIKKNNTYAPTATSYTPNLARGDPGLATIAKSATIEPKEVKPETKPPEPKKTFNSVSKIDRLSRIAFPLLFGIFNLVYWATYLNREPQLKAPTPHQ
T2 sequence (P47870 25-512 partner limits assumed): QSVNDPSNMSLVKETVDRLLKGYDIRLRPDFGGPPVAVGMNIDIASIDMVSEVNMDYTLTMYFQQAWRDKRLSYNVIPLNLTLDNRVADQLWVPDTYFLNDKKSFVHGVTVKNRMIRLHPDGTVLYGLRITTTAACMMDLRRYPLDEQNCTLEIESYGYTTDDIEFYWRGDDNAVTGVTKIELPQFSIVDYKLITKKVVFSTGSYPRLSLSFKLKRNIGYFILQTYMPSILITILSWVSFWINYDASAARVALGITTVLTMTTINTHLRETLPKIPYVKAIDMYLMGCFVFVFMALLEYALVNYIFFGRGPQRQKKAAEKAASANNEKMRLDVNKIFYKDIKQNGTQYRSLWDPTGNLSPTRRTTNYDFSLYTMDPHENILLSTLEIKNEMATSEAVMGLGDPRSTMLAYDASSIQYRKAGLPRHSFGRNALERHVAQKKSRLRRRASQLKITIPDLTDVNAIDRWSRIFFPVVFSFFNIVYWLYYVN
T2 sequence (P18507 40-475): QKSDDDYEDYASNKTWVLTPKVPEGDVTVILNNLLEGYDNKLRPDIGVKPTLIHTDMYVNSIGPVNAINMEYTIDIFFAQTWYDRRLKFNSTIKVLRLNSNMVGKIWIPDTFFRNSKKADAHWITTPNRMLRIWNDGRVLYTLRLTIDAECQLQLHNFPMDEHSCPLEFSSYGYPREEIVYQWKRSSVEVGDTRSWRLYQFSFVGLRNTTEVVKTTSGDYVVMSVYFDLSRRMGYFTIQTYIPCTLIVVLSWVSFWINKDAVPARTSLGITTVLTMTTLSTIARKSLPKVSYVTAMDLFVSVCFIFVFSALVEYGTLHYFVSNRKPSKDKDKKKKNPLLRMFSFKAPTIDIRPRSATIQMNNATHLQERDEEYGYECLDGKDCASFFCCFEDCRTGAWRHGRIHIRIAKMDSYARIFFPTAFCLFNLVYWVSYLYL
T3 sequence (P47869 29-451): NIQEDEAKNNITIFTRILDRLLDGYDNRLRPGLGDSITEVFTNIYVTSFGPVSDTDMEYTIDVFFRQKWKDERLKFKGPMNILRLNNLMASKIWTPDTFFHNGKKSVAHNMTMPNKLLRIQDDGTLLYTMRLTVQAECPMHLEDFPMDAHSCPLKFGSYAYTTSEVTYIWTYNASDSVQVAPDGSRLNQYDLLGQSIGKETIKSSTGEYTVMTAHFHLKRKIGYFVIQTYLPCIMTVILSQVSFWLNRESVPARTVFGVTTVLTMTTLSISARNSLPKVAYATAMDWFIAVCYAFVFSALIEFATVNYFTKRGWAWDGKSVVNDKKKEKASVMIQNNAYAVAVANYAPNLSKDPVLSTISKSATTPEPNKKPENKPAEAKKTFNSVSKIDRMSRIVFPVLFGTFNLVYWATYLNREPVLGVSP
T3 sequence (P28472 26-473 partner): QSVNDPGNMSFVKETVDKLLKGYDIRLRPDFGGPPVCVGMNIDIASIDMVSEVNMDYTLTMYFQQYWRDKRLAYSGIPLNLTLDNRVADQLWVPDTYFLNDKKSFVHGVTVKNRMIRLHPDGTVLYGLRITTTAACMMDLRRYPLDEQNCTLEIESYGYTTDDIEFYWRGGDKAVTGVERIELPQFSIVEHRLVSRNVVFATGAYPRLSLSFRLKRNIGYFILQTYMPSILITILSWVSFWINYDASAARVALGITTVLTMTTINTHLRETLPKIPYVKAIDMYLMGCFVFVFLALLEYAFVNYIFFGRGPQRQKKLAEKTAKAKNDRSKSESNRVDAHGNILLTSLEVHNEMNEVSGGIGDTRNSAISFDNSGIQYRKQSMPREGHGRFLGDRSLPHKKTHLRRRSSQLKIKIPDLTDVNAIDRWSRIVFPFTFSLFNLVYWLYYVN
T3 sequence (P18507 40-475): as the sequence (P18507 40-475) above
T1 sequence (P47869 29-451): as the sequence (P47869 29-451) above
T1 sequence (P28472 26-473 partner): as the sequence (P28472 26-473 partner) above
T1 sequence (P18507 40-475): as the sequence (P18507 40-475) above

Ki [1] | Relative Potentiation for GABAA1 (GABAA receptor α1β2γ2) | Relative Potentiation for GABAA2 (GABAA receptor α2β3γ2) | SMILES
2.35 nM | 0.13 | 0.28 | COc1ccncc1-c1c(F)ccc2c(N)c3c(nc12)CN(C1CC1)C3=O [Example 41, 9-Amino-2-cyclopropyl-6-fluoro-5-(4-methoxypyridin-3-yl)-2,3-dihydropyrrolo[3,4-b]quinolin-1-one]
0.185 nM | 0.02 | 0.27 | COc1cnccc1-c1c(F)ccc2c(N)c3c(nc12)CN(C1CCC1)C3=O [9-Amino-2-cyclobutyl-6-fluoro-5-(3-methoxypyridin-4-yl)-2,3-dihydropyrrolo[3,4-b]quinolin-1-one]
11.4 nM | 0.094 | 0.25 | Nc1c2c(nc3c(-c4cc(Cl)ccc4Cl)cccc13)CN(C1CC1)C2=O [Example 59, 9-Amino-2-cyclopropyl-5-(2,5-dichlorophenyl)-2,3-dihydropyrrolo[3,4-b]quinolin-1-one]
4.85 nM | −0.15 | 0.013 | COc1cccc(Cl)c1-c1c(F)ccc2c(N)c3c(nc12)CN(C1CC1)C3=O [9-amino-5-(2-chloro-6-methoxyphenyl)-2-cyclopropyl-6-fluoro-2,3-dihydro-1H-pyrrolo[3,4-b]quinolin-1-one]
2.17 nM | −0.03 | 0.14 | Nc1c2c(nc3c(-c4nccnc4F)cccc13)CN(C1CCC1)C2=O [9-Amino-2-cyclobutyl-5-(3-fluoropyrazin-2-yl)-2,3-dihydropyrrolo[3,4-b]quinolin-1-one]
0.905 nM | −0.016 | 0.18 | COc1cccc(-c2cccc3c(N)c4c(nc23)CN(C2CCC2)C4=O)c1C#N [2-(9-Amino-2-cyclobutyl-1-oxo-2,3-dihydro-1H-pyrrolo[3,4-b]quinolin-5-yl)-6-methoxybenzonitrile]
0.953 nM | 0.11 | 0.4 | COc1ncc(-c2c(F)ccc3c(N)c4c(nc23)CN(C2CCC2)C4=O)c(OC)n1 [9-Amino-2-cyclobutyl-5-(2,4-dimethoxypyrimidin-5-yl)-6-fluoro-2,3-dihydropyrrolo[3,4-b]quinolin-1-one]
8.14 nM | −0.02 | 0.088 | COc1cc(F)c(-c2cccc3c(N)c4c(nc23)CN(C2CC2)C4=O)c(F)c1 [9-Amino-2-cyclopropyl-5-(2,6-difluoro-4-methoxyphenyl)-2,3-dihydropyrrolo[3,4-b]quinolin-1-one]
1.84 nM | 0.09 | 0.44 | COc1ccncc1-c1cccc2c(N)c3c(nc12)CN(C1CCC1)C3=O [Example 62, 9-Amino-2-cyclobutyl-5-(4-methoxypyridin-3-yl)-2,3-dihydropyrrolo[3,4-b]quinolin-1-one]
27.4 nM | 0.054 | 0.17 | CCN1Cc2nc3c(-c4cc(F)ccc4OC)cccc3c(N)c2C1=O [9-Amino-2-ethyl-5-(5-fluoro-2-methoxyphenyl)-2,3-dihydropyrrolo[3,4-b]quinolin-1-one]
1.35 nM | 0.079 | 0.17 | Nc1c2c(nc3c(-c4ccncc4)cccc13)CN(C1CCC1)C2=O [9-Amino-2-cyclobutyl-5-pyridin-4-yl-2,3-dihydropyrrolo[3,4-b]quinolin-1-one]
22.6 nM | 0.052 | 0.068 | CCN1Cc2nc3c(-c4cccc(F)c4OC)cccc3c(N)c2C1=O [9-amino-2-ethyl-5-(3-fluoro-2-methoxyphenyl)-2,3-dihydro-1H-pyrrolo[3,4-b]quinolin-1-one]
14.5 nM | −0.05 | 0.12 | COc1ccc(-c2cccc3c(N)c4c(nc23)CN(C2CC2)C4=O)c(F)c1 [Example 115, 9-Amino-2-cyclopropyl-5-(2-fluoro-4-methoxyphenyl)-2,3-dihydropyrrolo[3,4-b]quinolin-1-one]
32.5 nM | 0.09 | 0.11 | COc1cccc(-c2cccc3c(N)c4c(nc23)CN(C)C4=O)c1F [9-Amino-5-(2-fluoro-3-methoxyphenyl)-2-methyl-2,3-dihydropyrrolo[3,4-b]quinolin-1-one]
29.9 nM | −0.11 | 0.1 | Cc1ccc(-c2cccc3c(N)c4c(nc23)CN(C2CC2)C4=O)cn1 [9-Amino-2-cyclopropyl-5-(6-methyl-pyridin-3-yl)-2,3-dihydropyrrolo[3,4-b]quinolin-1-one]
17 nM | 0.033 | 0.16 | Nc1c2c(nc3c(-c4cccc(F)c4F)cccc13)CN(C1CC1)C2=O [9-Amino-2-cyclopropyl-5-(2,3-difluorophenyl)-2,3-dihydropyrrolo[3,4-b]quinolin-1-one]

Second part, the compound before the results:

SMILES | Ki [1] | Relative Potentiation for GABAA1 (GABAA receptor α1β2γ2) | Relative Potentiation for GABAA2 (GABAA receptor α2β3γ2)
CCCN1Cc2nc3c(-c4cc(Cl)ccc4OC)cccc3c(N)c2C1=O [9-amino-5-(5-chloro-2-methoxyphenyl)-2-propyl-2,3-dihydro-1H-pyrrolo[3,4-b]quinolin-1-one] | 39.6 nM | 0.36 | 0.54
Cc1ccc(-c2cccc3c(N)c4c(nc23)CN(C2CCC2)C4=O)nc1 [9-Amino-2-cyclobutyl-5-(5-methylpyridin-2-yl)-2,3-dihydropyrrolo[3,4-b]quinolin-1-one] | 12.7 nM | 0.088 | 0.13
COc1ccc(CN2Cc3nc4c(-c5ccc(-c6ccc(Cl)nc6)nc5)cccc4c(N)c3C2=O)cc1OC [9-amino-5-(6′-chloro-2,3′-bipyridin-5-yl)-2-(3,4-dimethoxybenzyl)-2,3-dihydro-1H-pyrrolo[3,4-b]quinolin-1-one] | 20.4 nM | −0.048 | 0.023
CCN1Cc2nc3c(-c4ccc(OC)cc4F)c(F)ccc3c(N)c2C1=O [9-amino-2-ethyl-6-fluoro-5-(2-fluoro-4-methoxyphenyl)-2,3-dihydro-1H-pyrrolo[3,4-b]quinolin-1-one] | 1.49 nM | −0.04 | 0.05
CCN1Cc2nc3c(-c4cc(Cl)ccc4OC)c(F)ccc3c(N)c2C1=O [9-Amino-5-(5-chloro-2-methoxyphenyl)-2-ethyl-6-fluoro-2,3-dihydropyrrolo[3,4-b]quinolin-1-one] | 2.22 nM | 0.033 | 0.27
CCN1Cc2nc3c(-c4c(F)cccc4OC)c(F)ccc3c(N)c2C1=O [9-Amino-2-ethyl-6-fluoro-5-(2-fluoro-6-methoxyphenyl)-2,3-dihydropyrrolo[3,4-b]quinolin-1-one] | 3.47 nM | −0.12 | 0.093
Cc1nn(C)cc1-c1c(F)ccc2c(N)c3c(nc12)CN([C@@H]1CCOC1)C3=O [Example 97, 9-Amino-5-(1,3-dimethyl-1H-pyrazol-4-yl)-6-fluoro-2-(R)-tetrahydrofuran-3-yl-2,3-dihydropyrrolo[3,4-b]quinolin-1-one] | 10.4 nM | 0.15 | 0.35
CCCN1Cc2nc3c(-c4ccc(F)nc4C)cccc3c(N)c2C1=O [9-amino-5-(6-fluoro-2-methylpyridin-3-yl)-2-propyl-2,3-dihydro-1H-pyrrolo[3,4-b]quinolin-1-one] | 22.3 nM | 1.7 | 0.48
CCN1Cc2nc3c(-c4cnccc4C)c(F)ccc3c(N)c2C1=O [9-Amino-2-ethyl-6-fluoro-5-(4-methylpyridin-3-yl)-2,3-dihydropyrrolo[3,4-b]quinolin-1-one] | 2.01 nM | −0.0025 | 0.094
CCCN1Cc2nc3c(-c4cc(Cl)ccc4Cl)cccc3c(N)c2C1=O [9-amino-5-(2,5-dichlorophenyl)-2-propyl-2,3-dihydro-1H-pyrrolo[3,4-b]quinolin-1-one] | 11.8 nM | 0.31 | 0.32
COc1ccc(CN2Cc3nc4c(-c5c(F)cccc5OC)cccc4c(N)c3C2=O)cc1OC [Example 65, 9-Amino-2-(3,4-dimethoxybenzyl)-5-(2-fluoro-6-methoxyphenyl)-2,3-dihydropyrrolo[3,4-b]quinolin-1-one] | 2.68 nM | 0.092 | 0.2
CCN1Cc2nc3c(-c4cccnc4OC)c(F)ccc3c(N)c2C1=O [Example 58, 9-Amino-2-ethyl-6-fluoro-5-(2-methoxypyridin-3-yl)-2,3-dihydropyrrolo[3,4-b]quinolin-1-one] | 4.08 nM | −0.055 | 0.28
CCCN1Cc2nc3c(-c4cc(C)cnc4OC)cccc3c(N)c2C1=O [9-amino-5-(2-methoxy-5-methylpyridin-3-yl)-2-propyl-2,3-dihydro-1H-pyrrolo[3,4-b]quinolin-1-one] | 3.59 nM | 0.58 | 0
